Source: PMC9945734 (BMC Medicine, 2023)

System: PC-3-KQ and PC-3-KR cells
Experiment: RNA-sequencing and differential gene expression
Format: cell-based, human
Settings: for logFC: KQ-Control vs KQ-NTZ

## CC(=O)Oc1ccccc1C(=O)Nc1ncc([N+](=O)[O-])s1 [Nitazoxanide]
Gene ANKRD36C
  change of NTZ treatment: down
Gene ANKRD37
  logFC: 0.9125
Gene ANXA8
  logFC: 0.7906
Gene ANXA8L1
  change of NTZ treatment: down
Gene ARG2
  change of NTZ treatment: up
  logFC: 2.138
Gene ARL10
  change of NTZ treatment: down
Gene ARSK
  change of NTZ treatment: up
  logFC: 0.7653
Gene ASB2
  change of NTZ treatment: down
Gene ATP2A3
  logFC: 1.284
Gene BRINP2
  change of NTZ treatment: down
Gene BTBD11
  change of NTZ treatment: down
Gene BTN3A3
  change of NTZ treatment: up
Gene CAPN12
  logFC: 0.767
Gene CAPSL
  change of NTZ treatment: down
Gene CCNA1
  logFC: 0.9046
Gene CEP19
  change of NTZ treatment: down
Gene CFB
  logFC: 0.9221
Gene CNTNAP3B
  change of NTZ treatment: down
Gene COL4A3
  logFC: 2.258
Gene COL4A4
  logFC: 0.8129
Gene CSF1R
  change of NTZ treatment: up
Gene CXCL5
  change of NTZ treatment: down
Gene CYP1B1
  change of NTZ treatment: up
Gene CYP2E1
  change of NTZ treatment: up
Gene CYP8B1
  change of NTZ treatment: up
  logFC: 1.238
Gene CYSTM1
  change of NTZ treatment: up
  logFC: 0.6246
Gene DEPTOR
  change of NTZ treatment: down
Gene DISP1
  change of NTZ treatment: up
  logFC: 0.6346
Gene DMPK
  change of NTZ treatment: up
  logFC: 0.6319
Gene DRP2
  change of NTZ treatment: down
Gene ECM2
  change of NTZ treatment: down
Gene ESPN
  change of NTZ treatment: up
Gene FA2H
  logFC: 1.574
Gene FAM83D
  change of NTZ treatment: down
Gene FAM178B
  logFC: 1.11
Gene FAM186B
  change of NTZ treatment: down
Gene FANCI
  change of NTZ treatment: down
Gene FANCL
  change of NTZ treatment: down
Gene FCGBP
  change of NTZ treatment: down
Gene FER1L6
  logFC: 0.6222
Gene FIBCD1
  logFC: 1.28
Gene FLI1
  change of NTZ treatment: down
Gene FLRT1
  change of NTZ treatment: down
Gene FRY
  change of NTZ treatment: up
  logFC: 1.204
Gene FSD2
  change of NTZ treatment: down
Gene FTH1
  logFC: 1.218
Gene FUT3
  logFC: 0.7626
Gene FXYD3
  logFC: 0.8317
Gene FZD4
  change of NTZ treatment: down
Gene GALNT12
  logFC: 0.8862
Gene GCNT3
  change of NTZ treatment: up
  logFC: 2.701
Gene GDPD3
  logFC: 1.109
Gene HAS3
  change of NTZ treatment: down
Gene HSPB8
  change of NTZ treatment: up
  logFC: 1.784
Gene IFITM10
  change of NTZ treatment: up
Gene IGDCC4
  change of NTZ treatment: up
  logFC: 1.493
Gene IGF2BP1
  change of NTZ treatment: down
Gene IL1RN
  change of NTZ treatment: up
Gene IL36RN
  logFC: 0.6398
Gene INHBA
  change of NTZ treatment: down
Gene KDELR2
  change of NTZ treatment: up
  logFC: 0.621
Gene KIAA0319
  logFC: 2.322
Gene KIAA1755
  change of NTZ treatment: down
Gene KLHDC7B
  logFC: 1.286
Gene LOC105374299
  logFC: 1.732
Gene LONRF2
  change of NTZ treatment: down
Gene LRRK1
  logFC: 0.8715
Gene LTB
  change of NTZ treatment: down
Gene MAP2
  change of NTZ treatment: up
  logFC: 0.8904
Gene MCM4
  change of NTZ treatment: down
Gene MEF2C
  change of NTZ treatment: up
Gene MEOX1
  change of NTZ treatment: down
Gene METRNL
  change of NTZ treatment: up
Gene MFSD2A
  logFC: 0.6152
Gene MINAR1
  logFC: 1.165
Gene MMP9
  change of NTZ treatment: down
Gene MROH8
  change of NTZ treatment: down
Gene MUC4
  change of NTZ treatment: up
  logFC: 1.575
Gene MVP
  logFC: 0.7778
Gene MYH7B
  change of NTZ treatment: down
Gene NAV1
  change of NTZ treatment: up
  logFC: 1.226
Gene NECTIN4
  logFC: 1.852
Gene NKD1
  change of NTZ treatment: down
Gene NLRC5
  logFC: 0.8508
Gene NR4A2
  change of NTZ treatment: up
Gene NT5E
  change of NTZ treatment: up
  logFC: 0.5964
Gene PCDH18
  change of NTZ treatment: down
Gene PDGFA
  logFC: 0.7622
Gene PDZK1
  change of NTZ treatment: up
  logFC: 0.8579
Gene PGAM4
  change of NTZ treatment: down
Gene PHOSPHO2
  change of NTZ treatment: down
Gene PIANP
  change of NTZ treatment: down
Gene PKIA
  logFC: 0.8539
Gene PLEKHG1
  change of NTZ treatment: up
Gene PRKAR1B
  logFC: 0.8008
Gene PRKDC
  change of NTZ treatment: down
Gene PROS1
  change of NTZ treatment: up
  logFC: 0.9134
Gene PRR16
  change of NTZ treatment: down
Gene PRRT4
  change of NTZ treatment: down
Gene RBL1
  change of NTZ treatment: down
Gene RMDN2
  logFC: 0.9051
Gene RND1
  change of NTZ treatment: up
Gene RP1L1
  change of NTZ treatment: down
Gene S100A6
  change of NTZ treatment: up
  logFC: 0.6427
Gene SAT1
  logFC: 0.7952
Gene SDCBP2
  logFC: 1.238
Gene SERPINA5
  change of NTZ treatment: down
Gene SERPINB3
  change of NTZ treatment: down
Gene SERPINB4
  change of NTZ treatment: down
Gene SERPIND1
  change of NTZ treatment: down
Gene SGK3
  change of NTZ treatment: up
Gene SHISA3
  change of NTZ treatment: down
Gene SLC41A2
  change of NTZ treatment: up
  logFC: 0.8444
Gene SLFN11
  change of NTZ treatment: up
Gene SMCO4
  change of NTZ treatment: up
Gene SPOCK2
  change of NTZ treatment: up
  logFC: 1.756
Gene SRPX
  logFC: 0.5983
Gene STK32A
  logFC: 1.274
Gene SYN3
  logFC: 1.227
Gene TBX2
  logFC: 0.6055
Gene TCN1
  change of NTZ treatment: down
Gene TJP3
  change of NTZ treatment: up
  logFC: 0.6134
Gene TMEM140
  change of NTZ treatment: up
Gene TMEM269
  change of NTZ treatment: up
  logFC: 0.7715
Gene TMOD1
  logFC: 1.793
Gene TMPRSS2
  logFC: 1.205
Gene TNFRSF6B
  change of NTZ treatment: down
Gene TNFRSF11B
  change of NTZ treatment: down
Gene TNFSF14
  logFC: 1.643
Gene TRIM31
  change of NTZ treatment: up
  logFC: 1.207
Gene TTC9
  change of NTZ treatment: up
Gene TTC30B
  change of NTZ treatment: down
Gene UGT2B7
  logFC: 1.608
Gene WHRN
  logFC: 0.869
Gene WNT4
  logFC: 1.78
Gene WNT9A
  change of NTZ treatment: up
Gene ZNF302
  change of NTZ treatment: down
